Source: patent publication US12083118B2, “Substituted 1,1′-biphenyl compounds, analogues thereof, and methods using same” (Arbutus Biopharma Corporation, priority 2018, dated 2024)
pIC50: −log10 of the molar value.

Biological target: PD-L1 (Homo sapiens (Human), UniProt Q9NZQ7)
Experiment: HTRF Assay (PD-1/PD-L1)
Format: binding
Conditions: PD-L1 His protein 6 nM, PD-1 Fc protein 6 nM
Procedure: PD-L1 small molecule inhibitors were diluted by 3-fold starting from 20 μM and a final concentration of 0.001 μM and added to the well. PD-1 Fc protein was added at the final concentration of 6 nM. PD-L1 His protein, PD-L1 small molecule inhibitors, and PD1 Fc proteins were added to the well in this order, with each 5 μl volume, and were incubated for 15 minutes at room temperature. […] The plate was read using PerkinElmer Envision plate reader and data was analyzed by Prism 6 software. Results are illustrated in Table 1

PD-L1, sequence (Q9NZQ7 19-238): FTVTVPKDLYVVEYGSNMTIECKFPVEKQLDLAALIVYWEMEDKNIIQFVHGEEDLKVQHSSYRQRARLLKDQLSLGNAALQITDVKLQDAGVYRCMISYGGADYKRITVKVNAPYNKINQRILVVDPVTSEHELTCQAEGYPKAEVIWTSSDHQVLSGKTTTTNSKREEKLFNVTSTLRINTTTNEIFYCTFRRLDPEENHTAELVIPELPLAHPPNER

SMILES	pIC50
Cc1c(COc2cc(OCc3cncc(C#N)c3)c(CN3CCCC[C@H]3C(=O)O)cc2Cl)cccc1-c1cccc(COc2cc(OCc3cncc(C#N)c3)c(CN3CCCC[C@H]3C(=O)O)cc2Cl)c1C [Example 27, (2S)-1-[[4-[[3-[3-[[4-[[(2S)-2-Carboxy-1-piperidyl]methyl]-2-chloro-5-[(5-cyano-3-pyridyl)methoxy]phenoxy]methyl]-2-methyl-phenyl]-2-methyl-phenyl]methoxy]-5-chloro-2-[(5-cyano-3-pyridyl)methoxy]phenyl]methyl] piperidine-2-carboxylic acid]	8.89
COc1cc(OCc2cccc(-c3cccc(COc4cc(OC)c(CN5CCCC[C@H]5C(=O)O)cc4Cl)c3C)c2C)c(Cl)cc1CN1CCCC[C@H]1C(=O)O [Example 29, (2S)-1-[[4-[[3-[3-[[4-[[(2S)-2-carboxy-1-piperidyl]methyl]-2-chloro-5-methoxy-phenoxy]methyl]-2-methyl-phenyl]-2-methyl-phenyl]methoxy]-5-chloro-2-methoxy-phenyl]methyl]piperidine-2-carboxylic acid]	8.92
